Source: patent US20180099931A1 (AbbVie S.à.r.l., priority 2016, published 2018)
Like-named read-outs stand apart in the source and are kept apart here.

Molecular target: T1, F508delCFTR (Homo sapiens, UniProt P13569, DEL508-508)
T1 construct: expressed in transfected cells; host or cells: CFBE41o- human lung-derived epithelial cells (CFBE4lo-F508delCFTR-HRP), doxycycline-inducible
Test: Cell Surface Expression-Horse Radish Peroxidase (CSE-HRP) Assay;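 as to Maximum % activity (with co-corrector): co-corrector and positive control are both the same reference corrector at 2 µM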;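 as to Maximum % activity (without co-corrector): percent of the 2 µM on-plate positive control corrector response above DMSO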
Format: cell-based
Settings: for Emax / Maximum % activity (with co-corrector): maximum at any tested concentration, normalized to on-plate positive control; for Emax: read-out: Maximum % activity (without co-corrector); for Maximum % activity (with co-corrector): with co-corrector (2 μM)
Procedure: Cell Surface Expression-Horse Radish Peroxidase (CSE-HRP) Assay;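 as to Maximum % activity (with co-corrector): co-corrector and positive control are both the same reference corrector at 2 µM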;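 as to Maximum % activity (without co-corrector): percent of the 2 µM on-plate positive control corrector response above DMSO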
The development was achieved by expressing the F508delCFTR mutation along with a horseradish peroxidase (HRP) in the fourth exofacial loop, and then measuring the HRP activity using luminescence readout from these cells, CFBE4lo-F508delCFTR-HRP, that were incubated overnight with the test corrector compounds, either without or with the co-corrector. […] The test compounds were then added either without or with a co-corrector at the required concentrations and further incubated for 18-24 hours at 33° C. The highest concentration tested was 20 μM with an 8-point concentration response curve using a 3-fold dilution in both the test compound without or with the co-corrector. Three replicate plates were run to determine one EC50. All plates contained negative controls (dimethyl sulfoxide, DMSO) and positive control (2 μM of 3-[(2R,4R)-4-({[1-(2,2-difluoro-1,3-benzodioxol-5-yl)cyclopropyl]carbonyl}amino)-7-methoxy-3,4-dihydro-2H-chromen-2-yl]benzoic acid) as well as on-plate concentration response of the positive control. […] The raw counts from the experiment were analyzed using Accelrys® Assay Explorer v3.3.
1−[3*SDPositive Control+3*SDNegative Control/Absolute(MeanPositive Control−MeanNegative Control)]
wherein “SD” is standard deviation.
The % activity measured at each of the 8 test concentrations of the test compound added either without or with a co-corrector (2 μM of 3-[(2R,4R)-4-({[1-(2,2-difluoro-1,3-benzodioxol-5-yl)cyclopropyl]carbonyl}amino)-7-methoxy-3,4-dihydro-2H-chromen-2-yl]benzoic acid) was normalized to the on-plate positive control using the following formulae:
% activity(Test compound without co-corrector)=[(test compound without co-corrector response−DMSO response)/(positive control response−DMSO response)]*100
% activity(Test compound with co-corrector)=[(test compound with co-corrector response−DMSO response)/(positive control response−DMSO response)]*100
The maximum % activity achieved for the test compound either without or with a co-corrector at any tested concentration is presented in Table 4 along with the respective EC50's calculated using the following general sigmoidal curve with variable Hill slope equation (described as Model 42 in the Accelrys® Assay Explorer v3.3 software):
General sigmoidal curve with concentration, response, top, bottom, EC50 and Hill slope. This model describes a sigmoidal curve with an adjustable baseline, a. The equation can be used to fit curves where response is either increasing or decreasing with respect to the independent variable, “x”.
“x” is a concentration of drug under test. “y” is the response. “a” is the maximum response, and “d” is the minimum response “c” is the inflection point (EC50) for the curve. That is, “y” is halfway between the lower and upper asymptotes when x=c. “b” is the slope-factor or Hill coefficient. The sign of b is positive when the response increases with increasing dose and is negative when the response decreases with increasing dose (inhibition).

[1] = test compound without co-corrector
[2] = test compound without co-corrector, read-out: EC50 (without co-corrector)
[3] = with co-corrector (2 μM of 3-[(2R,4R)-4-({[1-(2,2-difluoro-1,3-benzodioxol-5-yl)cyclopropyl]carbonyl}amino)-7-methoxy-3,4-dihydro-2H-chromen-2-yl]benzoic acid), read-out: EC50 (with co-corrector)

T1 sequence (P13569 with tags, fused parts or gaps DEL508-508): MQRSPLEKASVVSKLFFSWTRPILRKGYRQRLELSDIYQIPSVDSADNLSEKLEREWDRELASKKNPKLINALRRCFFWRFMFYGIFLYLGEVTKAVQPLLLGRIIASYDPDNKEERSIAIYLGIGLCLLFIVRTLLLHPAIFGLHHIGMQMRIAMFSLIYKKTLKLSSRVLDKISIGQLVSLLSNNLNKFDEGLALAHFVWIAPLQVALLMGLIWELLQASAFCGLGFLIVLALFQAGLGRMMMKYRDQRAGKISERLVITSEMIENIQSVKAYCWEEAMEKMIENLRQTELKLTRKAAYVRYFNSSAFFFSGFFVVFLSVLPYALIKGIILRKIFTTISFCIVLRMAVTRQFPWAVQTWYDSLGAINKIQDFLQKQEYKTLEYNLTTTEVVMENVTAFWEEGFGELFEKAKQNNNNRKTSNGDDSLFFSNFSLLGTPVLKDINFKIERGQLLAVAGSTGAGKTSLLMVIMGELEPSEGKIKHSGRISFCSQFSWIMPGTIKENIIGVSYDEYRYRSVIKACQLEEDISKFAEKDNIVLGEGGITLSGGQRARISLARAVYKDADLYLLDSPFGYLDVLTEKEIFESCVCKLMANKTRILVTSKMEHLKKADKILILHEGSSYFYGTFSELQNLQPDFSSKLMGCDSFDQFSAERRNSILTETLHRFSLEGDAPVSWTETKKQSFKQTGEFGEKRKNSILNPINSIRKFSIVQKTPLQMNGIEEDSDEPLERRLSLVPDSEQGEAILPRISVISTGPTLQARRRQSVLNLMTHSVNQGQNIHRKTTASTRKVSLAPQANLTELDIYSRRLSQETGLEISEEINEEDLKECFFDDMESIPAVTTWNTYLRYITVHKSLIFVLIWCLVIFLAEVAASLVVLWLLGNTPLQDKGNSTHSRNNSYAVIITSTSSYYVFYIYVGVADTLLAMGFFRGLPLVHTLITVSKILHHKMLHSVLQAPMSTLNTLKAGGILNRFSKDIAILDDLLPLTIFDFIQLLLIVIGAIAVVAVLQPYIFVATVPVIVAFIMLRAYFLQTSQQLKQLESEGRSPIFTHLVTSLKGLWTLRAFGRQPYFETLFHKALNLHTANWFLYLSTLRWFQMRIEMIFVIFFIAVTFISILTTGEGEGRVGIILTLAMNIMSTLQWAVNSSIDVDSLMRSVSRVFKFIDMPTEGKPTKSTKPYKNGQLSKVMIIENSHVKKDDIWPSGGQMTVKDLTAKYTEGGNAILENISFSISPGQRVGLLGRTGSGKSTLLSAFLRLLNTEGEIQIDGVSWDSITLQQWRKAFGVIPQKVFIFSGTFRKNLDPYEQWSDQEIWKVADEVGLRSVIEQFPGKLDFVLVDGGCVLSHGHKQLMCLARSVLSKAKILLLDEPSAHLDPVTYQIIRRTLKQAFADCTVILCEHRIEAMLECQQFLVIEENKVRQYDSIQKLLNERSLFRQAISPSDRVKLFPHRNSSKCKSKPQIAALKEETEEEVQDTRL

SMILES | Emax [1] [%] | EC50 [2] [nM] | EC50 [3] [nM] | Maximum % activity (with co-corrector) | Emax (without co-corrector) [%]
COc1ccc(Cl)cc1CN[C@@H]1[C@@H](C(C)(C)C)[C@H](C(=O)O)N(C(=O)C2CCCCC2)[C@@H]1c1cccnc1N(C)C (racemic) [III-94] | 100 to 200 | 1000 to 10000 | 1000 to 10000 | +++ (≥350) | –
COc1cccc([C@H]2[C@@H](Nc3cc(C(F)(F)F)cc(C)n3)[C@H](C(C)(C)C)[C@@H](C(=O)O)N2C(=O)C2CCCCC2)n1 (racemic) [III-97] | < 100 | 1000 to 10000 | 1000 to 10000 | ++ (≥150 and <350) | –
Cc1cc(C(F)(F)F)cc(N[C@@H]2[C@@H](C(C)(C)C)[C@H](C(=O)O)N(C(=O)C3CCC(F)(F)CC3)[C@@H]2c2ccccc2)n1 (racemic) [III-104] | < 100 | > 10000 | 1000 to 10000 | ++ (≥150 and <350) | –
COc1cc(C(F)(F)F)ccc1CN[C@@H]1[C@@H](C(C)(C)C)[C@H](C(=O)O)N(C(=O)C2CCC3(CC2)CC3)[C@@H]1c1ccccc1 (racemic) [III-105] | < 100 | 1000 to 10000 | 1000 to 10000 | ++ (≥150 and <350) | –
COc1ccc(C(F)(F)F)c(CN[C@@H]2[C@@H](C(C)(C)C)[C@H](C(=O)O)N(C(=O)C3CCCCC3)[C@@H]2c2ccccc2)c1 (racemic) [III-106] | < 100 | 1000 to 10000 | 1000 to 10000 | ++ (≥150 and <350) | –
COc1ccc(C(C)(C)C)cc1CN[C@@H]1[C@@H](C(C)(C)C)[C@H](C(=O)O)N(C(=O)C2CCCCC2)[C@@H]1c1ccccc1 (racemic) [III-107] | > 200 | < 1000 | < 1000 | +++ (≥350) | –
CC(C)(C)[C@@H]1[C@@H](NCc2cc(F)ccc2S(C)(=O)=O)[C@@H](c2ccccc2)N(C(=O)C2CCCCC2)[C@H]1C(=O)O (racemic) [III-108] | < 100 | > 10000 | 1000 to 10000 | + (<150) | –
CC(C)(C)[C@@H]1[C@@H](NCc2cc(Br)ccc2C#N)[C@@H](c2ccccc2)N(C(=O)C2CCCCC2)[C@H]1C(=O)O (racemic) [III-109] | < 100 | > 10000 | 1000 to 10000 | ++ (≥150 and <350) | –
Cc1cc(C(F)(F)F)cc(N[C@@H]2[C@@H](C(C)(C)C)[C@H](C(=O)O)N(C(=O)[C@H]3C[C@H]4CC[C@@H]3C4)[C@@H]2c2ccccc2)n1 (racemic) [III-110] | < 100 | > 10000 | 1000 to 10000 | ++ (≥150 and <350) | –
COc1cc(Cl)cnc1N[C@@H]1[C@@H](C(C)(C)OC)[C@H](C(=O)O)N(C(=O)C2CCCCC2)[C@@H]1c1ccccc1 (racemic) [III-111] | < 100 | 1000 to 10000 | 1000 to 10000 | ++ (≥150 and <350) | –
COc1cc(C(F)(F)F)ccc1CN[C@@H]1[C@@H](C(C)(C)C)[C@H](C(=O)O)N(C(=O)C2COCCO2)[C@@H]1c1ccccc1 (mixture of isomers) [III-113] | < 100 | 1000 to 10000 | 1000 to 10000 | ++ (≥150 and <350) | –
COc1cc(C(F)(F)F)ccc1CN[C@@H]1[C@@H](C(C)(C)C)[C@H](C(=O)O)N(C(=O)OC2CCC2)[C@@H]1c1ccccc1 (racemic) [III-114] | 100 to 200 | 1000 to 10000 | 1000 to 10000 | +++ (≥350) | –
COc1ncc(C(F)(F)F)cc1CN[C@@H]1[C@@H](C(C)(C)OC)[C@H](C(=O)O)N(C(=O)C2CCCCC2)[C@@H]1c1ccccc1 (racemic) [III-116] | 100 to 200 | 1000 to 10000 | < 1000 | +++ (≥350) | –
COc1cc(Cl)ccc1CN[C@H]1[C@H](C(C)(C)C)[C@@H](C(=O)O)N(C(=O)C2CCCCC2)[C@H]1c1ncccc1OC (racemic) [III-143] | < 100 | > 10000 | > 10000 | + (<150) | –
COc1cc(C(F)(F)F)ccc1CN[C@H]1[C@H](C(C)(C)C)[C@@H](C(=O)O)N(C(=O)C(C)c2ccccc2)[C@H]1c1ccccc1 (relative stereo) [Example 11, (2S,3S,4S,5S)-3-tert-butyl-4-({[2-methoxy-4-(trifluoromethyl)phenyl]methyl}amino)-5-phenyl-1-[(2R*)-2-phenylpropanoyl]pyrrolidine-2-carboxylic acid] | – | 1000 to 10000 | 1000 to 10000 | +++ (≥350) | 100 to 200
COc1ccc(C(C)(C)C)cc1CN[C@H]1[C@H](C(C)(C)C)[C@@H](C(=O)O)N(C(=O)[C@H]2OCC[C@H]2C(C)C)[C@H]1c1ccccc1 (relative stereo) [Example 23, (2S,3S,4S,5S)-3-tert-butyl-4-{[(5-tert-butyl-2-methoxyphenyl)methyl]amino}-5-phenyl-1-[(2S*,3S*)-3-(propan-2-yl)oxolane-2-carbonyl]pyrrolidine-2-carboxylic acid] | – | 1000 to 10000 | < 1000 | +++ (≥350) | > 200
COc1nc(C(C)(C)C)ccc1CN[C@H]1[C@H](C(C)(C)C)[C@@H](C(=O)O)N(C(=O)C2CCCC(F)(F)C2)[C@H]1c1ccccc1 (relative stereo) [Example 53, (2S,3S,4S,5S)-3-tert-butyl-4-{[(6-tert-butyl-2-methoxypyridin-3-yl)methyl]amino}-1-[(1R*)-3,3-difluorocyclohexane-1-carbonyl]-5-phenylpyrrolidine-2-carboxylic acid] | – | 1000 to 10000 | < 1000 | +++ (≥350) | > 200
COc1ccc(C(C)(C)C)cc1CN[C@H]1[C@H](C(C)(C)C)[C@@H](C(=O)O)N(C(=O)C2CCCCO2)[C@H]1c1ccccc1C(C)C (relative stereo) [Example 62, (2S,3S,4S,5S)-3-tert-butyl-4-{[(5-tert-butyl-2-methoxyphenyl)methyl]amino}-1-[(2S*)-oxane-2-carbonyl]-5-[2-(propan-2-yl)phenyl]pyrrolidine-2-carboxylic acid] | – | < 1000 | < 1000 | +++ (≥350) | > 200
COc1ccc(C(C)(C)C)cc1CN[C@H]1[C@H](C(C)(C)C)[C@@H](C(=O)O)N(C(=O)[C@@H]2C[C@H]3CC[C@@H]2O3)[C@H]1c1ccccc1C(C)C (relative stereo) [Example 74, (2S,3S,4S,5S)-3-tert-butyl-4-{[(5-tert-butyl-2-methoxyphenyl)methyl]amino}-1-[(1S*,2R*,4R*)-7-oxabicyclo[2.2.1]heptane-2-carbonyl]-5-[2-(propan-2-yl)phenyl]pyrrolidine-2-carboxylic acid] | – | 1000 to 10000 | < 1000 | +++ (≥350) | > 200
COc1ccc(C(F)(F)F)cc1CN[C@@H]1[C@@H](C(C)(C)C)[C@H](C(=O)O)N(C(=O)C(C)Oc2ccccc2)[C@@H]1c1ccccc1 (relative stereo) [Example I-32] | – | 1000 to 10000 | 1000 to 10000 | +++ (≥350) | < 100
CO[C@H](C(=O)N1[C@H](c2ccccc2)[C@H](Nc2cc(C(F)(F)F)cc(C)n2)[C@@H](C(C)(C)C)[C@@H]1C(=O)O)c1ccccc1 (relative stereo) [Example I-33] | – | > 10000 | 1000 to 10000 | ++ (≥150 and <350) | < 100
